Test results: patent publication US6544989B2, “Benzazoles: benzoxazole, benzthiazole and benzimidazole derivatives” (Syngenta Limited, priority 1998, dated 2003)
Several values for one entry are separate records, joined by “and”; a condition that tells them apart may be missing. Equal entries are not always repeated. Where two headings read alike, the source gives them in different places. Marks after values point to notes of the source that are not given here.

Tests used:
Pyricularia oryzae = type: in vivo; conditions: METHOD 2 (unbanded)
Venturia inaequalis = experiment: Fungicidal test, Venturia inaequalis (VENTIN) on apples, PRCO; type: in vivo; conditions: METHOD 2 (unbanded)
Botrytis cinerea = experiment: Fungicidal test, Botrytis cinerea (BOTRCI) on tomatoes, PRCO; type: in vivo; conditions: METHOD 2 (unbanded)
Meloidogyne incognita = experiment: Nematode test, J2 infective juveniles of Meloidogyne incognita, mortality; conditions: 12.5 ppm; J2 infective juveniles suspended in solution; mortality after three days
Musca domestica = conditions: 500 ppm by weight; knockdown assessed 15 minutes after treatment
[1] = test system: Phytophthora infestans lycopersici; type: in vivo
Plasmopara viticola [2] = experiment: Fungicidal test, Plasmopara viticola (PLASVI) on vines, PRCO; type: in vivo
Septoria nodorum [3] = experiment: Fungicidal test, Septoria nodorum (LEPTNO) on wheat, PRCO; type: in vivo; conditions: METHOD 2 (unbanded)
Puccinia recondita = experiment: Fungicidal test, Puccinia recondita (PUCCRT) on wheat, PRCO; type: in vivo
[4] = test system: Erysiphe graminis f.sp. tritici; experiment: Fungicidal test, Erysiphe graminis f.sp. tritici (ERYSGT) on wheat, PRCO; type: in vivo; conditions: for ERYSGT 6 hr Prot/Foir PRCO: METHOD 1 (values marked *); for ERYSGT 1 d Prot/Foir PRCO: METHOD 2 (unbanded)
Rhizoctonia solani [5] = experiment: Fungicidal test, Rhizoctonia solani (RHIZSO) on rice, PRCO; type: in vivo; conditions: METHOD 2 (unbanded)
Uncinula necator = experiment: Fungicidal test, Uncinula necator (UNCINE) on vines, PRCO; type: in vivo; conditions: METHOD 2 (unbanded)
Rhizoctonia solani [6] = experiment: Synergy test of two-compound mixtures, Rhizoctonia solani (RHIZSO) on turf, observed and expected PRCO; type: in vivo; conditions: assessed 5 days after treatment
Septoria nodorum [7] = experiment: Synergy test of two-compound mixtures, Septoria nodorum (LEPTNO) on wheat, observed and expected PRCO; type: in vivo
Plasmopara viticola [8] = experiment: Synergy test of two-compound mixtures, Plasmopara viticola (PLASVI) on vines, observed and expected PRCO; type: in vivo; conditions: Disease on untreated: 95%

Structure (SMILES) | PYRIOR 1 d Prot/Foir PRCO (Pyricularia oryzae) | VENTIN 1 d Prot/Foir PRCO (Venturia inaequalis) | BOTRCI 1 d Prot/Foir PRCO (Botrytis cinerea) | MELGIN = Meloidogyne incognita, grading of mortality (score) (Meloidogyne incognita) | MUSCDO AC = Musca domestica (knockdown), score (Musca domestica) | PHYTIN 1 d Prot/Foir PRCO ([1]; METHOD 1 (values marked *)) | LEPTNO 1 d Prot/Foir PRCO (Septoria nodorum [3]) | ERYSGT 6 hr Prot/Foir PRCO [4] | PLASVI 1 d Prot/Foir PRCO (Plasmopara viticola [2]; METHOD 2 (unbanded)) | RHIZSO 1 d Prot/Foir PRCO (Rhizoctonia solani [5]) | UNCINE 1 d Prot/Foir PRCO (Uncinula necator) | PHYTIN 1 d Prot/Foir PRCO ([1]; METHOD 2 (unbanded)) | PUCCRT 1 d Prot/Foir PRCO (Puccinia recondita; METHOD 2 (unbanded)) | also measured
Cc1nc2cc(CC(=O)Nc3snc(C)c3Cl)ccc2o1 [2(A3)] | 47 and 92 | 97 | 0 | 5 (5 indicates 40-79% mortality) | 0 (0 indicates less than 40% mortality) | 100* | 21 | 100* |  |  |  |  |  | PLASVI 1 d Prot/Foir PRCO (Plasmopara viticola [2]; METHOD 1 (values marked *)): 0*; PUCCRT 1 d Prot/Foir PRCO (Puccinia recondita; METHOD 1 (values marked *)): 100*
CCCc1nc2cc(CC(=O)Nc3snc(C)c3Cl)ccc2o1 [4(A3)] | 90 and 81 |  | 49 | 9 (9 indicates 80-100% mortality) | 9 (9 indicates 80-100% mortality) | 100* | 50 | 100* | 34 |  |  |  |  | PUCCRT 1 d Prot/Foir PRCO (Puccinia recondita; METHOD 1 (values marked *)): 100*
Cc1nsc(NC(=O)Cc2ccc3oc(C(C)(C)C)nc3c2)c1Cl [9(A3)] | 100 | 33 | 3 | 0 (0 indicates less than 40% mortality) | 9 (9 indicates 80-100% mortality) |  | 55 | 100* |  | 29 | 100 | 100 | 100 | PLASVI 1 d Prot/Foir PRCO (Plasmopara viticola [2]; METHOD 1 (values marked *)): 100*
Cc1nsc(NC(=O)Cc2ccc3oc(CCc4ccccc4)nc3c2)c1Cl [247(A3)] | 85 | −11 |  | 0 (0 indicates less than 40% mortality) | 0 (0 indicates less than 40% mortality) |  | 13 |  | 62 | 0 | 95 | 97 | 95 | ERYSGT 1 d Prot/Foir PRCO [4]: 61
Cc1nsc(NC(=O)Cc2ccc3oc(-c4cc(Cl)cc(Cl)c4)nc3c2)c1Cl [261(A3)] | 31 | 0 |  | 0 (0 indicates less than 40% mortality) | 0 (0 indicates less than 40% mortality) |  | −7 |  | 25 | 0 | 17 | 0 | 3 | ERYSGT 1 d Prot/Foir PRCO [4]: 19
Cc1nsc(NC(=O)Cc2ccc3oc(CC(C)(C)C)nc3c2)c1Cl [Compound 15(A3)] | 100 | 100 | 73 | 0 (0 indicates less than 40% mortality) | 9 (9 indicates 80-100% mortality) | 100* | 71 | 100* | 100 | 5 | 100 |  | 100 | % disease control Observed (Rhizoctonia solani [6]; Test 1, Disease on untreated 100%, Compound 15(A3) 300 mg/l alone): 2.5%; % disease control Observed (Rhizoctonia solani [6]; Test 2, Disease on untreated 100%, Compound 15(A3) 300 mg/l alone): 6.1%; % disease control Observed (Septoria nodorum [7]; Test 1 (Disease on untreated: 52%), Compound 15(A3) 50 mg/l alone): 16%; % disease control Observed (Septoria nodorum [7]; Test 1 (Disease on untreated: 52%), Compound 15(A3) 100 mg/l alone): 27%; % disease control Observed (Septoria nodorum [7]; Test 2 (Disease on untreated: 64%), Compound 15(A3) 50 mg/l alone): 21%; % disease control Observed (Septoria nodorum [7]; Test 2 (Disease on untreated: 64%), Compound 15(A3) 100 mg/l alone): 21%; % disease control Observed (Plasmopara viticola [8]; Compound 15(A3) 0.2 mg/l alone): 45%
CO/C=C(/C(=O)OC)c1ccccc1Oc1cc(Oc2ccccc2C#N)ncn1 [azoxystrobin, reference compound] |  |  |  |  |  |  |  |  |  |  |  |  |  | % disease control Observed (Rhizoctonia solani [6]; Test 1, azoxystrobin 0.1 mg/l alone): 38.25%; % disease control Observed (Rhizoctonia solani [6]; Test 1, azoxystrobin 0.3 mg/l alone): 71.25%; % disease control Observed (Rhizoctonia solani [6]; Test 2, azoxystrobin 0.1 mg/l alone): 19.7%; % disease control Observed (Septoria nodorum [7]; Test 1 (Disease on untreated: 52%), azoxystrobin 0.1 mg/l alone): 41%; % disease control Observed (Septoria nodorum [7]; Test 1 (Disease on untreated: 52%), azoxystrobin 0.25 mg/l alone): 37%; % disease control Observed (Septoria nodorum [7]; Test 2 (Disease on untreated: 64%), azoxystrobin 0.1 mg/l alone): 48%; % disease control Observed (Septoria nodorum [7]; Test 2 (Disease on untreated: 64%), azoxystrobin 0.25 mg/l alone): 71%; % disease control Observed (Plasmopara viticola [8]; azoxystrobin 0.2 mg/l alone): 61%
CSC1=N[C@@](C)(c2ccccc2)C(=O)N1Nc1ccccc1 [fenamidone] |  |  |  |  |  |  |  |  |  |  |  |  |  | % disease control Observed (Plasmopara viticola [8]; fenamidone 0.2 mg/l alone): 65%
O=[N+]([O-])c1cc(C(F)(F)F)c(Cl)c([N+](=O)[O-])c1Nc1ncc(C(F)(F)F)cc1Cl [fluazinam] |  |  |  |  |  |  |  |  |  |  |  |  |  | % disease control Observed (Rhizoctonia solani [6]; Test 1, fluazinam 3 mg/l alone): 15%; % disease control Observed (Rhizoctonia solani [6]; Test 1, fluazinam 10 mg/l alone): 48.75%; % disease control Observed (Rhizoctonia solani [6]; Test 2, fluazinam 10 mg/l alone): 18.4%; % disease control Observed (Plasmopara viticola [8]; fluazinam 1 mg/l alone): 4%
